“And” between values parts separate entries of the source, which are not always exact repeats. Identical values can stand only once.
Columns and labels:
STC-1 cells = assay: STC-1 cell experiments (Cox activity, oxygen consumption, ATP/ADP, GLP-1 release); assay type: cell-based, mouse
ileal explants = assay: GLP-1 release ex vivo from ileal explants; design: species or system mouse; conditions: 1 h exposure, explants from 18-weeks HF-fed TGR5-Tg male mice
Description: . Pellicciari et al., 2007, J. Med. Chem. 50, 4265-4268). cAMP production was performed as described (Sato et al., 2008, J. Med. Chem. 51, 1831; Watanabe et al., 2006, Nature 439, 484). […] ATP/ADP ratio and GLP-1 release were measured according to the manufacturers' instructions (Biovision and Millipore, respectively). Primary brown adipocytes were prepared as previously described (Watanabe et al., 2006, Nature 439, 484), and ileal explants were prepared according to an established method (Cima et al., 2004, J. Exp. Med. 200, 1635-1646).
Plasma parameters and hepatic and fecal lipid content were measured as described (Mataki et al., 2007, Mol. Cell. Biol. 27, 8330-8339). Hematoxylin and eosin (H&E), Sirius red, and oil red 0 staining were performed as described (Mark al., 2007, Curr. Protoc. Mol. Biol. Chapter 29, Unit 29B, 24), and micrographs were taken on wide-field microscopes (Leica) with a CCD camera. For pancreatic sections, islets were sized and counted from four HE-stained alternated sections spaced of […] using ImageJ software (five animals per group). […] Insulin was extracted after O/N incubation at −20° C. in acid ethanol and measured by ELISA on PBS-diluted samples according to the manufacturer's instructions (Mercodia). GLP-1 release was measured in vitro, ex vivo, and in vivo according to methods known in the art.

[1] = Biliary secretion and hepatic metabolism in bile fistula rat after femoral infusion (Example 22); assay type: in vivo; conditions: after iv administration
in vitro [2] = conditions: human, HepG2 cells
[3] = Octanol/water partition coefficient (shake-flask); assay type: physicochemical; conditions: pH 8
TGR5+/+ and TGR5-/- mice = assay: OGTT in HF-fed TGR5+/+ and TGR5-/- mice before and after treatment; assay type: in vivo, mouse; conditions: for body weight after treatment: HF diet, 30 mg/kg/d 4 weeks
Description: […]. […] […]; not statistically different). […]; not statistically different).
Animals were housed and bred according to standardized procedures (Argmann and Auwerx, 2006b). Age-matched male mice were used for all experiments. Genetically engineered mouse models (GEMMs), i.e., TGR5-Tg and TGR5^−/− mice, were generated as described in the Supplemental Data. […]; Research Diets) for at least 8 weeks, as mentioned in the text and figure legends. […] Mouse phenotyping experiments were performed according to EMPRESS protocols (see, for example, Empress (European Mouse Phenotyping Resource of Standardised Screening) website) and were aimed to assess food and water intake, body composition (Argmann et al., 2006a, Curr. Protoc. Mol. Biol. Chapter 29, Unit 29A, 23), energy expenditure (Argmann et al., 2006a, Curr. Protoc. Mol. Biol. Chapter 29, Unit 29A, 23), glucose and lipid homeostasis (Argmann et al., 2006b, Curr. Protoc. Mol. Biol. Chapter 29, Unit 29A, 22); Heikkinen et al., 2007, Curr. Protoc. Mol. Chapter. 29, Unit 29B, 23; Mataki et al., 2007, Mol. Cell. Biol. 27, 8330), and plasma biochemistry (Argmann and Auwerx, 2006a, Curr. Protoc. Mol. Biol. Chapter 29, Unit 29A, 22). Tissues and blood were collected and processed for histopathology, blood chemistry, and gene expression according to standardized procedures (Argmann and Auwerx, 2006a; Feige et al., 2008b; Mark et al., 2007; Watanabe et al., 2006). Hyperinsulinemic euglycemic clamp studies were performed as described (Feige et al., 2008b), with minor modifications including a change in the initial insulin bolus (30 mU/kg) and insulin infusion rate (10 mU/min/kg). Plasma GLP-1 levels were measured by ELISA (Millipore) on blood collected by retro-orbital puncture. […].

bovine serum albumin = bovine serum albumin (Bos taurus, UniProt P02769); assay: Albumin binding by equilibrium dialysis; assay type: in vitro ADME; conditions: 100 μM BA in 5% bovine serum albumin-saline, pH 7.2
Description: The extent of albumin binding was evaluated by equilibrium dialysis at a fixed BA-albumin ratio. BA was dissolved at a concentration of 100 μM in 5% bovine serum albumin-saline solution (pH 7.2) and left to stand for 24 h at 25° C. Two milliliters of this solution was dialyzed in cellulose sacs having a molecular weight cut-off of 12-14,000 against 25 ml of saline solution. The system was equilibrated by mechanical gently shaking for 72 h at 25° C. BA concentrations of the dialyzed solution (corresponding to the free unbound fraction) and of the starting solution were determined with HPLC-ESI-MS/MS in the same conditions of the previous analysis.
The percent of albumin binding was calculate from the initial BA concentration and from the unbound concentration in the dialyzed fraction.

in vitro [4] = conditions: human, s9
[5] = test system: Diet-Induced Obesity Mouse Model; assay: Diet-induced obesity mouse model (Example 9); assay type: in vivo
[6] = Choleretic effect (bile flow) in bile fistula rat, id and iv infusion; assay type: in vivo; conditions: for SV0: maximum bile secretion rate: 1 (μmol/min)/kg bw over 1 h
[7] = Bile flow in bile fistula rat after femoral infusion (Example 22); assay type: in vivo

Sequence of bovine serum albumin (P02769 25-607): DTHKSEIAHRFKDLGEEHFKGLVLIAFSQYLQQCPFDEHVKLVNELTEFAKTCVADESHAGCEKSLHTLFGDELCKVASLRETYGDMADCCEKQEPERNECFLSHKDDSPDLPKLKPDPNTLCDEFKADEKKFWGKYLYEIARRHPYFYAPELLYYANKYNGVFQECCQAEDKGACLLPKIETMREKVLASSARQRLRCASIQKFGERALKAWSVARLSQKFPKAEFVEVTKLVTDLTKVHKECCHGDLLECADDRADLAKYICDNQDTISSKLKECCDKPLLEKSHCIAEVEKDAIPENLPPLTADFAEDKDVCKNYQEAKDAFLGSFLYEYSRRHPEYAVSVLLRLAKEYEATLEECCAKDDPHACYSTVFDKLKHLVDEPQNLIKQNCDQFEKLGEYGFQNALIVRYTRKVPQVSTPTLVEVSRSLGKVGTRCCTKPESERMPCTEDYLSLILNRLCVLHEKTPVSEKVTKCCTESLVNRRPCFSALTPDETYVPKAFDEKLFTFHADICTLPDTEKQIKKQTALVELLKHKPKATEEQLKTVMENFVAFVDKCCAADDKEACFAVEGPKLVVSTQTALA

CC[C@H]1[C@@H](O)[C@@H]2[C@H](C[C@H](O)[C@]3(C)[C@@H]([C@H](C)C[C@H](C)C(=O)O)CC[C@@H]23)[C@@]2(C)CC[C@@H](O)C[C@@H]12 [Ih3e, 6α-ethyl-(23S)-methyl-3α,7α,12α trihydroxy-5β-cholan-24-oic acid]
Cox activity (STC-1 cells): cAMP-dependent increase in Cox activity | cellular oxygen consumption (STC-1 cells): increase in cellular oxygen consumption | impact on GLP-1 release (STC-1 cells; prevented by RNA interference or MDL-12-330A): enhanced by TGR5 overexpression | GLP-1 release ex vivo (ileal explants): dramatically and dose-dependently induces the release of GLP-1 ex vivo | biliary secretion [1]: efficient | EC50 at 4 h (in vitro [2]): > 1 mM | LogPA- (1-octanol-water partition coefficient, ionized species) [3]: 1.4 and 1.44 | insulin secretion during oral glucose challenge (TGR5+/+ and TGR5-/- mice; TGR5+/+ fed a HF diet): normalization of insulin secretion | glucose tolerance (TGR5+/+ and TGR5-/- mice; TGR5+/+ fed a HF diet, 4 weeks 30 mkd): significantly improved glucose tolerance | body weight after treatment (TGR5+/+ and TGR5-/- mice; TGR5+/+ mice): 43.50 ± 3.47 g | effects on glucose tolerance and insulin secretion (TGR5+/+ and TGR5-/- mice; TGR5-/- mice): blunted | body weight after treatment (TGR5+/+ and TGR5-/- mice; TGR5-/- mice): 52.30 ± 2.72 g | Albumin Binding (bovine serum albumin): 62% | half-life (in vitro [4]): 725 min | plasma insulin levels ([5]; after 10 weeks, chow fed and high fat fed mice vs vehicle): increased | glucose levels ([5]; after 12 weeks, high fat fed mice): lower | food/water intake ([5]; high fat diet vs vehicle): slight increase | glucose tolerance ([5]; high fat fed mice): improves glucose tolerance | percentage of change in body, organ and adipose tissue weight compared to chow diet ([5]; high fat fed mice): reduced percentage change | blood glucose ([5]; high fat fed mice vs vehicle): lower | heart rate ([5]; high fat fed mice vs vehicle): lower heart rate | liver enzymes (LDH, ASAT, ALAT) ([5]; high fat fed mice vs vehicle): lower | plasma lipids (total cholesterol, HDL-chol, LDL-chol, triglycerides) ([5]; high fat fed mice vs vehicle): lower | insulin levels after a test meal ([5]; high fat fed mice vs vehicle, at about 12 minutes): peaked to higher levels | body weight gain ([5]; high fat fed mice, 16 weeks, vs vehicle): less weight gain | duration of increased bile flow ([6]; duodenal infusion): at least 3 hours | maximum bile flow rate ([6]; duodenal infusion 1 μmol/kg/min, 1 hour): about 120 μL/min/kg | SV0: maximum bile secretion rate ([6]; id infusion): 112 ± 12 (μL/min)/kg bw | bile flow rate ([6]; iv (femoral) infusion): significantly increased the bile flow rate | SV0: maximum bile secretion rate ([6]; iv infusion): (131 ± 11) (μL/min)/kg bw | duration of increased bile flow after the end of the infusion period ([7]; iv infusion): at least 2 hours | bile flow rate ([7]; iv infusion 1 μmol/min/kg for 1 h): significantly increased the bile flow rate
